Source: US9884031B2, “Use of HDAC inhibitors for treatment of cardiac rhythm disorders” (THE TRUSTEES OF THE UNIVERSITY OF PENNSYLVANIA, priority 2007, dated 2018)
Entries after “also recorded” stand apart in the source; their conditions may differ. Marks after values point to notes of the source that are not given here.

Tests used:
[1] = system: Hop transgenic mice (HopX^Tg); assay: Morphometric analysis of hearts (heart weight, atrial weight ratios); assay type: in vivo, mouse; conditions: for Heart weight to tibia length ratio (HW/TL), in words: TSA-Hop^Tg vs Hop^Tg mice
Description: (§1) Trichostatin A 0.6 mg/kg daily in a volume of 0.2 mL was given by intraperitoneal injection for 14 consecutive days upon inducible atrial arrhythmias and atrial structurally remodeling in an engineered mouse model with left ventricular hypertrophy and inducible atrial fibrillation. Transgenic mice over-expressing the homeodomain-only protein (Hop^Tg), which promotes cardiac hypertrophy and interstitial fibrosis, were divided into three groups: control, Hop^Tg mice and Hop^Tg mice treated with trichostatin A.
(§2) Hop^Tg mice had higher left ventricular end-diastolic pressure (LVEDP), and reduced peak systolic contraction and diastolic relaxation compared to WT mice. However, trichostatin A had no effect upon the LVEDP, systolic contraction or diastolic relaxation when treatment was initiated in animals aged 12-14 weeks of age. These parameters were similar between Hop^Tg and TSA-Hop^Tg mice, though still abnormal when compared to WT mice. In addition, the heart weight to tibia length ratio (HW/TL) was higher in Hop^Tg and TSA-Hop^Tg mice compared to WT, but there was no difference in the HW/TL between Hop^Tg and TSA-Hop^Tg mice. *P<0.05 compared to WT; ^†P<0.05 compared to TSA-Hop^Tg.

[2] = system: phospho-JNK; assay: Western blot of atrium: phospho-JNK; assay type: in vivo, mouse; conditions: between Hop^Tg, TSA-Hop^Tg or control mice, FIG. 2B
Description: (§3) Adult mouse atrium and ventricle were dissected and homogenized in buffer containing 1% Igepal surfactant, 0.5% deoxycholate sodium, 2% SDS, 5 mmol EDTA (pH=7.4), 1% protease inhibitor cocktail tablet (Roche) with and without phosphatase inhibitor cocktail (Sigma-Aldrich). Samples were cleared of debris by centrifugation at 5000 g for 10 min. and the protein concentration was determined using a BCA protein assay kit (Pierce). Protein samples were run on a 4-12% gradient pre-cast SDS-PAGE gel (Invitrogen), and after electrophoresis were transferred onto PVDF membranes (Millipore) using 0.1% acetic acid/10% methanol as a transfer buffer. Membranes were incubated with primary antibodies in 5% milk and PBS overnight at 4° C. and then washed for 5 min, 4 times with TBS-T solution. […] Results were visualized by enhanced chemiluminescence using a commercially available kit (Western Breeze, Invitrogen) and data were recorded on BioMax-MR film (Kodak, Rochester, N.Y.). Densitometry was determined using the Image-J software package (National Institutes of Health). […]

[3] = system: models of pressure-overload and angiotensin-induced hypertrophy; conditions: cited from earlier work
[4] = system: connexin40; assay: Immunoblot analysis of atrial connexin40; assay type: in vivo, mouse; conditions: TSA-treated Hop transgenic mice, FIG. 3A
Description: as §3

[5] = system: Hop transgenic mice (Hop^Tg); assay: Masson's trichrome staining for collagen as marker of fibrosis; assay type: in vivo, mouse; conditions: FIG. 1; for Atrial fibrosis (in words): TSA-treated Hop transgenic mice vs untreated
Description: Hearts were excised from, washed in 37° C. Dulbecco's 1×PBS, arrested in 50 mmol/L KCl, and fixed in 4% formalin. Fixed hearts were cut transversely and sectioned serially from ventricular apex to base. Two sections (5 μm each) were retained at the beginning of each 50-μm step. Sections were stained with Masson's trichrome stain for collagen as a marker of fibrosis. Quantification of the proportion of fibrosis in each heart was then performed with scientific imaging software (Image-J, National Institutes of Health)) and high-resolution serial scanning technique. Histological sections from the entire left ventricle and both atrium were used for analysis from three different hearts.
as §1

[6] = system: connexin43; assay: Immunoblot analysis of atrial connexin43; assay type: in vivo, mouse; conditions: WT, Hop and TSA-Hop mice, FIG. 3B
Description: as §3

[7] = system: Hop transgenic mice (Hop^Tg); assay: Invasive hemodynamic measurements; assay type: in vivo, mouse; conditions: for Effect upon LVEDP, systolic contraction (peak positive dP/dt) and diastolic relaxation (peak negative dP/dt), in words: TSA-Hop^Tg vs Hop^Tg, treatment initiated at 12-14 weeks of age
Description: Hop^Tg mice 14-18 weeks old were compared with wild-type littermates and TSA treated Hop^Tg mice. Anesthesia was induced with 3% isoflurane and maintained by ventilation with 0.75% isoflurane. Temperature was maintained at 36-37° C. Intracardiac pressures were recorded using a 1.4 French micromanometer catheter (Micro-Tip SPR-671; Millar Instruments) that was zeroed prior to making measurements on each animal in a saline bath. The catheter was inserted via the right carotid artery to record intracardiac pressures and digitized at 2-kHz using a PowerLab/16 SP A/D converter (ADInstruments Ltd.).
as §1, §2

[8] = system: phospho-p38-MAPK; assay: Western blot of atrium: phospho-p38-MAPK; assay type: in vivo, mouse; conditions: between Hop^Tg, TSA-Hop^Tg or control mice, FIG. 2C
Description: as §3

[9] = system: phospho-ERK1/2; assay: Western blot of atrium: phospho-ERK1/2; assay type: in vivo, mouse; conditions: TSA-Hop^Tg mice relative to Hop^Tg, FIG. 2D
Description: as §3

[10] = system: histone acetylation; conditions: TSA 0.6 mg/kg/day, previous studies; cited from earlier work
[11] = system: activated TGF-β1; assay: Western blot of atrium: activated TGF-β1; assay type: in vivo, mouse; conditions: TSA-Hop^Tg mice relative to Hop^Tg, FIG. 2E
Description: as §3

[12] = system: 3 week-old HopX^Tg mice; conditions: cited from earlier work
[13] = system: connexin40 and connexin43; assay: Distribution of atrial connexins (quantitative confocal immunodetection); assay type: in vivo, mouse; conditions: TSA-treated Hop^Tg mice
Description: Mice were heparizined, anesthetized with pentobarbital […] and hearts excised through a sternotomy. Hearts were mounted on a Langendorf apparatus, perfused with Tyrode's solution (composition as in Ref. 21) at 3.0-3.5 milliliter [ml]/minute [min] at a temperature of 36°-37° C. Hearts were perfused with Ca^2+-free Tyrode's solution for 6 min., followed by 12-15 min. of perfusion with Ca^2+-free Tyrode's solution containing: collagenase B, collagenase D (Roche Chemical Co.) and protease (Fraction IV, Sigma Chemical Co.). […]
The area of immunoreactive signal in discrete spots from isolated atrial myocytes was quantified using laser scanning confocal microscopy. Scanning of single optical slices (<1 μm) by confocal laser scanning microscopy was done on the Leica TCS SP2 system using the spectral detection set for simultaneous fluorescence imaging of Alexa488 and DIC imaging with transmitted light to obtain the cell outline. […] Areas were quantified using the count nuclei application in the Metamorph software package (Molecular Devices). The total area of each atrial myocyte was calculated from the DIC images and the area of the connexin immunoreactive spots was calculated from the Alexa488 fluorescent images.

[14] = system: HopX^Tg mice; assay: Echocardiographic analysis of ventricular structure and function; assay type: in vivo, mouse
Description: To better characterize the effects of TSA upon ventricular structure and function, echocardiographic analysis of HopX^Tg, TSA-HopX^Tg and WT mice was performed. […] However, TSA had no effect upon these parameters as ventricular wall thickness and systolic function were similar between HopX^Tg and TSA-HopX^Tg mice (Table 4), consistent with the hemodynamic analysis of these animals.

[15] = system: Hop transgenic mice (Hop^Tg); assay: In-vivo electrophysiology study: inducible arrhythmias by programmed electrical stimulation; set-up: species or system mouse
Description: An in-vivo electrophysiology study was performed in each mouse to assess atrial and ventricular conduction, refractoriness, and arrhythmia inducibility. Surface ECG recordings and complete in vivo electrophysiological studies (EPS) were obtained from Hop^Tg mice (14-18 weeks old), age-matched non-transgenic littermates and TSA-treated Hop^Tg mice. Each mouse was anesthetized with pentobarbital ([…] IP), and multi-lead ECGs were obtained using 26-gauge subcutaneous electrodes. Temperature was maintained at 32-33° C. A jugular vein cutdown was performed and an octapolar 2-French electrode catheter (CIBer mouse-EP; NuMED, Inc) placed in the right atrium and ventricle under electrogram guidance to confirm catheter position. A programmed digital stimulator (DTU-215A, Bloom Associates Ltd) was used to deliver electrical impulses at approximately twice diastolic threshold. […] ECG channels were filtered from 0.5 to 250 Hz and intracardiac electrograms were filtered from 5 to 400 Hz. ECG intervals were measured by two independent observers blinded to the animal's genotype.
The PR, QRS, RR, and QT intervals were measured in 6 surface-limb ECG leads by 2 independent observers, who were both blinded to the animals' genotype. Intracardiac recordings were obtained during identical pacing and programmed electrical stimulation protocols for all mice by experienced investigators.
Trichostatin A 0.6 mg/kg daily in a volume of 0.2 mL was given by intraperitoneal injection for 14 consecutive days prior to cardiac electrical stimulation in Hop transgenic mice (Hop^Tg) compared with wild-type controls (WT).
Ventricular programmed electrical stimulation induced similar numbers and durations of ventricular tachycardia in 3 of 11 Hop^Tg mice compared to 4 of 12 control mice (P=NS).

[16] = TSA 0.6 mg/kg daily IP 14 days, HopX^Tg mice, n = 13, mean±SD
[17] = TSA 0.6 mg/kg daily IP 14 days, Hop^Tg mice, n = 8, mean±SD
[18] = TSA-treated HopX^Tg mice, n = 4, echocardiography
[19] = TSA 0.6 mg/kg daily IP 14 days, Hop^Tg mice
[20] = TSA 0.6 mg/kg daily IP 14 days, Hop^Tg mice, n = 10
[21] = TSA 0.6 mg/kg daily IP 14 days, Hop^Tg mice, n = 10, mean±SD

CC(/C=C/C(=O)NO)=C\[C@@H](C)C(=O)c1ccc(N(C)C)cc1 [TSA, Trichostatin A]
Heart weight [1, 16]: 192.8 ± 15.5* mg
Heart weight/body weight [1, 16]: 7.4 ± 0.67* mg/g
Heart weight to tibia length ratio (HW/TL), in words ([1]; 14-18 week-old): no significant changes; also recorded: no change
Heart weight to tibia length ratio (HW/TL), in words ([1]; 14-18 week-old, listed as trichostatin A): no difference
Atrial weight/tibial length ratio (AW/TL), in words ([1]; TSA-treated HopX^Tg vs HopX^Tg mice, 14-18 week-old): no significant changes; also recorded: no change
Phospho-JNK protein expression in atrium [2]: not different
Myocardial mechanical function, in words [3]: improve
Atrial connexin40 expression [4]: normalized
Atrial fibrosis (in words) ([5]; listed as Trichostatin A): reduced
Atrial fibrosis (in words) ([5]; listed as trichostatin A): complete reversal of atrial fibrosis
Ventricular interstitial fibrosis (in words) ([5]; three groups incl. TSA-Hop): no obvious ventricular interstitial fibrosis
Atrial connexin43 expression [6]: no changes
Heart rate [7, 17]: 392 ± 63.5 bpm
LV end diastolic pressure [7, 17]: 7.2 ± 2.4* mmHg
LV systolic pressure [7, 17]: 90.6 ± 8.8 mmHg
Peak negative dP/dt [7, 17]: −2267 ± 1320* mmHg/s
Peak positive dP/dt [7, 17]: 6465 ± 1613 mmHg/s
Effect upon LVEDP, systolic contraction (peak positive dP/dt) and diastolic relaxation (peak negative dP/dt), in words [7]: no significant changes
Effect upon LVEDP, systolic contraction (peak positive dP/dt) and diastolic relaxation (peak negative dP/dt), in words ([7]; listed as trichostatin A): no effect
Phospho-p38-MAPK protein expression in atrium [8]: not different
Phospho-ERK1/2 protein expression in atrium [9]: increased
Histone acetylation in the heart, in words [10]: does augment histone acetylation
Activated TGF-β1 protein expression in atrium [11]: further decreased
Cardiac hypertrophy, in words [12]: partially reduces
Distribution of connexin40 and connexin43 in the atrium [13]: restored
Ventricular wall thickness and systolic function, in words ([14]; TSA-HopX^Tg vs HopX^Tg mice, echocardiography): no effect
Intra-ventricle Septum [14, 18]: 1.13 ± 0.18 mm
LV Ejection Fraction [14, 18]: 87.7 ± 7.00 %
LV Fractional Shortening [14, 18]: 53.9 ± 0.50 %
Left Ventricle Posterior Wall [14, 18]: 1.10 ± 0.14 mm
Left ventricular wall dimensions, in words ([14]; older 14-18 week-old HopX^Tg mice treated with TSA): no change
Mice with AT [15, 19]: 2/15
Mice with VT [15, 19]: 2/15
Episodes AT (atrial tachycardia) [15, 20]: 5
Episodes VT (ventricular tachycardia) [15, 20]: 4
AT CL (atrial tachycardia cycle length) [15, 21]: 47.0 ± 7.2 ms
Duration AT [15, 21]: 0.148 ± 0.110 s
Duration VT [15, 21]: 0.89 ± 1.07 s
VT CL (ventricular tachycardia cycle length) [15, 21]: 50.4 ± 8.6 ms
Mice in which atrial programmed electrical stimulation induced atrial arrhythmia ([15]; TSA-Hop^Tg mice vs 9 of 11 Hop^Tg mice, P<0.01): 2 of 10
Mice in which ventricular programmed electrical stimulation induced ventricular tachycardia ([15]; TSA-Hop^Tg mice vs Hop^Tg mice, P<0.05): 2 of 10
Atrial arrhythmia inducibility (in words) ([15]; TSA-treated Hop transgenic mice vs untreated): complete reversal of atrial arrhythmia inducibility
Duration and episodes of atrial fibrillation (in words) ([15]; TSA-treated Hop^Tg mice vs untreated): reduced
